Reference: patent US8168860B2, “Compositions and methods for the modification of physiological responses in plants” (Rohm and Haas Company, priority 2007, dated 2012)

Test system: tomato seedlings (WT, p1002-18, p1003-16)
Assay: Tomato seedling growth on 20 μM ACC and various levels of inducer
Format: in vivo
Conditions: 20 μM ACC; for Hypocotyl (mm) / Root (mm): 10 day old seedlings
Procedure: Homozygous tomato seeds from one p1002 containing and one p1003 containing line were germinated on medium containing 20 μM ACC and various levels of inducer (i.e., 0.5-20 μM).

[1] = p1002-18 tomato, Inducer 0.5 μM
[2] = p1002-18 tomato, Inducer 2.5 μM
[3] = p1003-16 tomato, Inducer 0.5 μM
[4] = p1003-16 tomato, Inducer 2.5 μM

CCC(N(NC(=O)c1ccc2c(c1C)O[C@@H](CO)CO2)C(=O)c1cc(C)cc(C)c1)C(C)(C)C (stereo partly drawn) [inducer, 3,5 Dimethyl-benzoic acid N-(1-ethyl-2,2-dimethyl-propyl)-N′-(3S-hydroxymethyl-5-methyl-2,3-dihydro-benzo[1,4]dioxine-6-carbonyl)hydrazide]
Hypocotyl (mm) (WT tomato, Inducer 20 μM): 6.24 ± 2.75 mm | Root (mm) (WT tomato, Inducer 20 μM): 9.06 ± 14.8 mm | Hypocotyl (mm) [1]: 8.40 ± 6.29 mm | Root (mm) [1]: 12.0 ± 13.3 mm | Hypocotyl (mm) (p1002-18 tomato, Inducer 1 μM): 11.1 ± 7.41 mm | Root (mm) (p1002-18 tomato, Inducer 1 μM): 16.5 ± 16.6 mm | Hypocotyl (mm) [2]: 13.5 ± 8.97 mm | Root (mm) [2]: 16.0 ± 16.6 mm | Hypocotyl (mm) (p1002-18 tomato, Inducer 5 μM): 14.5 ± 7.75 mm | Root (mm) (p1002-18 tomato, Inducer 5 μM): 15.2 ± 8.39 mm | Hypocotyl (mm) (p1002-18 tomato, Inducer 10 μM): 19.8 ± 10.8 mm | Root (mm) (p1002-18 tomato, Inducer 10 μM): 22.7 ± 13.5 mm | Hypocotyl (mm) (p1002-18 tomato, Inducer 20 μM): 26.3 ± 11.9 mm | Root (mm) (p1002-18 tomato, Inducer 20 μM): 33.3 ± 12.8 mm | Hypocotyl (mm) [3]: 17.0 ± 6.46 mm | Root (mm) [3]: 14.4 ± 15.3 mm | Hypocotyl (mm) (p1003-16 tomato, Inducer 1 μM): 20.9 ± 10.7 mm | Root (mm) (p1003-16 tomato, Inducer 1 μM): 10.3 ± 12.7 mm | Hypocotyl (mm) [4]: 20.1 ± 8.77 mm | Root (mm) [4]: 9.19 ± 8.98 mm | Hypocotyl (mm) (p1003-16 tomato, Inducer 5 μM): 23.6 ± 11.4 mm | Root (mm) (p1003-16 tomato, Inducer 5 μM): 20.2 ± 14.9 mm | Hypocotyl (mm) (p1003-16 tomato, Inducer 10 μM): 25.9 ± 8.77 mm | Root (mm) (p1003-16 tomato, Inducer 10 μM): 29.1 ± 12.4 mm | Hypocotyl (mm) (p1003-16 tomato, Inducer 20 μM): 27.5 ± 9.10 mm | Root (mm) (p1003-16 tomato, Inducer 20 μM): 25.6 ± 11.4 mm | relation of inducer concentration to level of ethylene insensitivity (tomato p1002 and p1003 line, inducer 0.5-20 μM): directly related to the level of ethylene insensitivity
